Experimental data from patent publication US6099857A, “Cell membrane fusion composition and method” (Washington University, priority 1998, dated 2000).

What was measured:
[1] = R18 assay of calcium-induced fusion of SUVs of ternary PS/PC/ethanolamine glycerophospholipid mixtures
[2] = Breakdown of lipids in vesicles during fusion studies (TLC, straight-phase HPLC, 3H label); format: physicochemical; conditions: within the time frame of the assay
Source text: To verify the differences in observed fusion rates were not due to selective breakdown of one subclass of ethanolamine glycerophospholipid, aliquots of lipid vesicles employed in the fusion studies were extracted by the method of Bligh and Dyer and analyzed by TLC and straight-phase HPLC. No lysophospholipids or other contaminants were detected within the time frame of the assay. For higher sensitivity detection, 16:0-18:1 plasmenyl ethanolamine was synthesized with a ^3 H label on the sn-2 oleoyl group. This label was added to a liposome preparation containing unlabeled PC and PE.

[3] = NBD-PE/Rh-PE lipid-mixing fusion assay with PS SUVs; conditions: equal molar mixture with PC; NBD-PE dequenching
Protocol: In the NBD-PE/Rh-PE assay detailed in Example 2B, NBD-PE (N-(7-nitrobenz-2-oxa-1,3-diazol-4-yl)-1,2-dihexadecanoyl-sn-glycerol-3-phosphoethanolamine), and Rh-PE are incorporated into PS SUV's and the vesicles are mixed with test vesicles. Vesicle fusion is followed by the change in fluorescence emission at 530 nm, after […] at 464 nm.
This assay was performed by preparing phosphatidylserine SUVs containing 1.8% Rh-PE and 1.2% NBD-PE and adding an equimolar amount of unlabelled PC/PE vesicles pursuant to (Struck, et al. (1981); and Hoekstra, 1982). Fusion was monitored by NBD-PE fluorescence at 530 nm after excitation at 464 nm. The 100% fusion level was assessed by preparing lipid vesicles composed of 46.5% PS, 25% PC, 25% PE, 0.9% Rh-PE, and 0.6% NBD-PE and subsequently quantifying fluorescence intensity.
Since Rh-PE partially quenches NBD-PE fluorescence by resonance energy transfer at the initial concentrations used in these experiments, membrane fusion results in an increase in NBD-PE fluorescence as available membrane surface area increases.
To verify the results obtained with the R18 fusion assay, a second lipid-mixing assay utilizing NBD-PE and Rh-PE was used. […]

[4] = target: T1, GAPDH isoform (membrane fusion protein) (Oryctolagus cuniculus, UniProt P46406); test: Protein-catalyzed membrane fusion of physiologically-modeled SUVs (R18, stopped flow); format: biochemical, rabbit; conditions: for inhibition of membrane fusion activity: GAPDH isoform-catalyzed fusion of physiologically-modeled SUVs
T1 construct: from tissue; host or cells: rabbit brain (cytosol; DE-52 void volume, HiLoad SP Sepharose, GTP-agarose and Mono Q fractions)
Protocol: Rabbit brain cytosol was prepared and loaded onto a previously equilibrated DE-52 column. The column was developed with a linear NaCl gradient (0-400 Mm NaCl) and column eluents were assayed for their ability to catalyze membrane fusion utilizing physiologically-modeled small unilamellar vesicles (SUVs) as described in "Materials and Methods". Vesicles were comprised of 16:0-18:1 phosphatidylcholine (27%), 16:0-18:1 phosphatidylserine (6%), cholesterol (40%) and 27% of each of the following ethanolamine glycerophospholipids: 18:0-20:4 plasmenylethanolamine; 16:0-18:1 plasmenylethanolamine; 18:0-20:4 phosphatidylethanolamine; or 16:0-18:1 phosphatidylethanolamine . (----), uv absorbance at 280 nm; (----), NaCl gradient.
Physiologically-modeled SUVs were prepared (concentration=200 μM). The other chamber contained the Pi3 /NAD^+ eluent from GTP-agarose chromatography (0.004 mg/ml) which was previously incubated with (D)-glyceraldehyde 3-phosphate at the indicated concentrations for 30 seconds at 37° C. The rates of membrane fusion from four separate determinations of two preparations were averaged and expressed as a percentage of maximum fusion.
Physiologically-modeled small unilamellar vesicles consisting of 16:0-18:1 phosphatidylcholine (27%), ethanolamine glycerophospholipid (27%), 16:0-18:1 phosphatidylserine (6%) and cholesterol (40%) were prepared (final lipid concentration of 200 μM) and placed in one chamber of a stopped-flow apparatus. Aliquots of the HiLoad SP Sepharose column eluent (protein concentration=0.002 mg/ml) were placed in the other chamber, samples were rapidly mixed in a stopped flow apparatus and membrane fusion was quantified. Ethanolamine glycerophospholipids included 100% plasmenyl ethanolamine (A) 75% plasmenyl ethanolamine and 25% PE (B); 50% plasmenyl ethanolamine and 50% PE (C); and 25% plasmenyl ethanolamine and 75% PE (D;
Vesicles were composed of 16:0-18:1 PC/18:0-20:4 plasmenyl ethanolamine/cholesterol (27/27/40 mole percent) and varying mole percentages of phosphatidylserine (6% phosphatidylserine (A), 12% phosphatidylserine (B), 3% phosphatidylserine (C) or 0% phosphatidylserine (D)).
Physiologically-modeled SUVs containing phosphatidylcholine/18:0-20:4 plasmenylethanolamine/phosphatidylserine (45/45/10 mole ratio) and selected mole percentages of cholesterol (i.e., 40% cholesterol (A), 20% cholesterol (B), or 0% cholesterol (C)) were placed in one chamber of a stopped-flow apparatus. The other chamber contained aliquots of the active fraction from GTP-agarose chromatography (i.e., 20 mM tripolyphosphate/10 mM NAD^+ (Pi3 /NAD^+)), at a protein concentration of 0.004 mg/ml. Samples were rapidly mixed and membrane fusion was quantified. Results represent the average of six recordings from two independent preparations expressed as a percentage of maximal fusion.
The isolation of a GAPDH isoform that has been discovered to catalyze vesicle fusion, in accordance with the invention, is described in Example 5. Briefly, a […] homogenate was centrifuged at high speed to produce a cytosol. Dialyzed cytosol was fractionated on a DE-52 column, and the fractions were assayed in a vesicle fusion assay. The lipid vesicles that were used in the assay were composed of 27 mole percent of […], 6 mole percent PS, 40 mole percent cholesterol, and 27 mole percent […]. These vesicles show little measurable self-fusion activity, as evidenced by change in fluorescence in an R18 assay (half of the vesicles labeled with R18). […] The reasons underlying the cryptic nature of this activity in crude cytosol have been elaborated, showing that the cytosol contains a potent endogenous protein inhibitor of fusion activity. […]

GAPDH = target: T2, GAPDH (Oryctolagus cuniculus, UniProt P46406); test: Glyceraldehyde 3-phosphate dehydrogenase activity (spectrophotometric, NADH); format: biochemical, rabbit
T2 construct: Column eluents were assayed for GAPDH activity and membrane fusion activity; from tissue; host or cells: rabbit brain (column eluents of the purification)
Protocol: The activity of GAPDH was measured spectrophotometrically utilizing modifications of the methods of Cori, .backslash.at al. (1948) and Steck, et al. (1973). Briefly, sample was added to a 1 cm path-length semi-micro cuvette containing 50 mM triethanolamine (pH 7-6), sodium arsenate (50 mM) (pH 8.8), 2.4 mM glutathione (reduced), 0.5 mM NAD, and water in a final volume of 990 .backslash.pl. After establishing a baseline (1 min), the reaction was initiated with 10 μl of 10 mM D-glyceraldehyde 3-phosphate (prepared according to Sigma product bulletin G-8007) and absorbance at 340 nm was measured for 5 minutes. Units of GAPDH activity represent the mass (μmol) of D-glyceraldehyde 3-phosphate converted per minute. The mass of NADH generated was calculated utilizing ε=[…].

T1 sequence (P46406 2-333 limits assumed): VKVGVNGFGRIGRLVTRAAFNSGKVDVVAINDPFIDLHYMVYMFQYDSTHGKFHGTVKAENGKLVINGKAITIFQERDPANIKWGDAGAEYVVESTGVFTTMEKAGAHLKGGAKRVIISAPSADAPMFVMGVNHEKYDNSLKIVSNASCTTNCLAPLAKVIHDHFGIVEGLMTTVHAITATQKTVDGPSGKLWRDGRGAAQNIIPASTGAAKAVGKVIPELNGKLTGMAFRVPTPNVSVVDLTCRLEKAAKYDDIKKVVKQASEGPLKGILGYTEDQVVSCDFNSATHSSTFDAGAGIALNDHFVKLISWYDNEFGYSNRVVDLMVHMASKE
T2 sequence (P46406 2-333 limits assumed): as above

CCCCCCCC/C=C\CCCCCCCC(=O)O[C@H](CO/C=C\CCCCCCCCCCCCCC)COP(=O)(O)OCCN [16:0-18:1 plasmenyl ethanolamine]
initial rate of membrane fusion relative to vesicles with 16:0-18:1 phosphatidylethanolamine ([1]; 45% PC/45% PE/10% PS vesicles): significantly greater
fusogenicity relative to vesicles containing 16:0-18:1 phosphatidylethanolamine ([1]; POPS/POPC/ethanolamine glycerophospholipid (1:1:1) SUVs): six times more fusogenic
breakdown of lipid during the fusion procedures [2]: No significant generation of radiolabeled fatty acid or lysophospholipid
rate of fusion to PS SUVs relative to PC/16:0-18:1 phosphatidylethanolamine vesicles [3]: three times more rapidly

O=C[C@H](O)COP(=O)(O)O [D-glyceraldehyde 3-phosphate]
inhibition of membrane fusion activity [4]: inhibited

O=C(O)c1cc(SSc2ccc([N+](=O)[O-])c(C(=O)O)c2)ccc1[N+](=O)[O-] [DTNB]
inactivation of membrane fusion-catalyzing activity ([4]; 1 mM for 30 minutes at 37° C., void volume activity): inactivated

CC(C)[C@H]1CC[C@@]2(CO2)[C@H]2C(=O)OCC(C(=O)O)=C[C@H]12 [Koningic acid]
inhibition of GAPDH enzyme activity (GAPDH): maximally inhibited
inhibition of membrane fusion activity [4]: failed to inhibit

CCN1C(=O)C=CC1=O [N-ethylmaleimide]
inhibition of membrane fusion-catalyzing activity ([4]; 1 mM for 60 minutes at 37° C., void volume activity): not inhibited

GAPDH isoform: 38 kDa isoform of glyceraldehyde-3-phosphate dehydrogenase purified from rabbit brain cytosol that catalyzes vesicle fusion
time for catalyzed fusion of one pair of vesicles (on average) ([4]; calculated, protein 4 μg/ml, assumes ≈1000 lipid molecules per vesicle and tetramer): 1 ms
selectivity of membrane fusion activity for vesicles containing plasmenylethanolamine compared with phosphatidylethanolamine ([4]; each stage of the purification procedure): highly selective
